Source: patent publication US20230250096A1, “SUBSTITUTED PHENYL-1H-PYRROLO[2,3-c] PYRIDINE DERIVATIVES” (Janssen Pharmaceutica NV, priority 2021, published 2023)

Assays:
MEIS1 mRNA expression = MEIS1 mRNA expression assay (Quantigene Singleplex) in MOLM14 cells; assay type: cell-based, human; settings: 48 hours incubation
Summary of the method: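 MOLM14 cells, 3,750/well, exposed to increasing compound concentrations for 48 h. MEIS1 mRNA measured by QuantiGene Singleplex branched-DNA hybridization (lysis 45 min, hybridization 18–22 h, both 55 °C), normalized to RPL28. IC50 fitted to background-corrected fold change versus DMSO.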

[1] = target: T1, menin/MLL (terbium chelate-labeled menin, FITC-MBM1 peptide) (Homo sapiens, UniProt O00255, T541A); assay: Menin/MLL homogenous time-resolved fluorescence (HTRF) assay; assay type: binding; settings: 30 min incubation
T1 construct: Menin (a.a 1-610-6xhis tag, 2.3 mg/mL in 20 mM Hepes)
T1 sequence (O00255 with tags, fused parts or gaps T541A): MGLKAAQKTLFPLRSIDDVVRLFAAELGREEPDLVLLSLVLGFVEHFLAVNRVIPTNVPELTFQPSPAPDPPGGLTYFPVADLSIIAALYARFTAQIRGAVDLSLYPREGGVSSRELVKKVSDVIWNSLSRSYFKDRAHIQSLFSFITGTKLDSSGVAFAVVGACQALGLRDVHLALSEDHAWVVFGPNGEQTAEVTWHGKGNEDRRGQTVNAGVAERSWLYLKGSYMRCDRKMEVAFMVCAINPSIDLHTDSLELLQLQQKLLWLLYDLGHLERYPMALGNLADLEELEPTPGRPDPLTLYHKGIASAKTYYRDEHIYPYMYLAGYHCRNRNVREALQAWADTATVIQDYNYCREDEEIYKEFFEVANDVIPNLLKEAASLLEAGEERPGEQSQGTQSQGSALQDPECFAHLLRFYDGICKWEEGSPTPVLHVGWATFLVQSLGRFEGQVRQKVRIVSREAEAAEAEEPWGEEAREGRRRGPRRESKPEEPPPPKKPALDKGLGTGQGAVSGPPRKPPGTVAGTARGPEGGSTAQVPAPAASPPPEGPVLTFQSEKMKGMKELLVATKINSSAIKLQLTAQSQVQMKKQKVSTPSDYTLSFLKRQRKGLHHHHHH
Summary of the method: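 Terbium-labeled menin (a.a. 1-610, His-tagged; […]) pre-incubated 30 min with compound, then 75 nM FITC-MBM1 peptide added for 15 min at ambient temperature in Tris pH 7.5 buffer, 0.5% DMSO. HTRF 520/490 nm ratio read; IC50 from 11-point four-fold titrations, typically from 10 μM.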

CC(=O)N1CCC(CN2CC[C@@H](Cc3cn(-c4ccc(F)cc4C(=O)N(C[C@@H](C)O)C(C)C)c4cncc(C)c34)C2)CC1 (single isomer, unassigned) [Compound 320a]
IC50 (MEIS1 mRNA expression; Homo sapiens, MOLM-14, 48 h): 24 nM
IC50 [1]: 0.189 nM

CC(=O)N1CCC(CN2CC[C@@H](Cc3cn(-c4ccc(F)cc4C(=O)N(C[C@H](C)O)C(C)C)c4cncc(C)c34)C2)CC1 (single isomer, unassigned) [Compound 320b]
IC50 (MEIS1 mRNA expression; Homo sapiens, MOLM-14, 48 h): 62 nM
IC50 [1]: 0.104 nM

Cc1cncc2c1c(C[C@@H]1CCN(C[C@H]3CCNC(=O)CC3)C1)cn2-c1ccc(F)cc1C(=O)N1CCC2CC21 (single isomer, unassigned) [Compound 351a]
IC50 (MEIS1 mRNA expression; Homo sapiens, MOLM-14, 48 h): 12 nM
IC50 [1]: 0.04 nM

Cc1cncc2c1c(C[C@@H]1CCN(C[C@@H]3CCNC(=O)CC3)C1)cn2-c1ccc(F)cc1C(=O)N1CCC2CC21 (single isomer, unassigned) [Compound 351b]
IC50 (MEIS1 mRNA expression; Homo sapiens, MOLM-14, 48 h): 182 nM
IC50 [1]: 0.255 nM

Cc1cncc2c1c(C[C@@H]1CCN(CC3CCOCC3)C1)cn2-c1ccc(F)cc1C(=O)N1CCC[C@]1(C)CO (single isomer, unassigned) [Compound 362a]
IC50 (MEIS1 mRNA expression; Homo sapiens, MOLM-14, 48 h): 184 nM
IC50 [1]: 0.149 nM

Cc1cncc2c1c(C[C@@H]1CCN(CC3CCOCC3)C1)cn2-c1ccc(F)cc1C(=O)N1CCCC1C(C)O (single isomer, unassigned) [Compound 363a]
IC50 (MEIS1 mRNA expression): 359 nM
IC50 [1]: 0.228 nM

Cc1cncc2c1c(C[C@@H]1CCN(CC3CCOCC3)C1)cn2-c1ccc(F)cc1C(=O)N1CCCC1C(C)O (single isomer, unassigned) [Compound 363b]
IC50 (MEIS1 mRNA expression): ~174 nM
IC50 [1]: 0.093 nM

Cc1cncc2c1c(C[C@@H]1CCN(CC3CCOCC3)C1)cn2-c1ccc(F)cc1C(=O)N1CC[C@@H](O)C1(C)C (single isomer, unassigned) [Compound 364a]
IC50 (MEIS1 mRNA expression; Homo sapiens, MOLM-14, 48 h): 225 nM
IC50 [1]: 0.098 nM

Cc1cncc2c1c(C[C@@H]1CCN(CC3CCOCC3)C1)cn2-c1ccc(F)cc1C(=O)N1CC[C@H](O)C1(C)C (single isomer, unassigned) [Compound 364b]
IC50 (MEIS1 mRNA expression; Homo sapiens, MOLM-14, 48 h): ~670 nM
IC50 [1]: 0.292 nM

Cc1cncc2c1c(C[C@@H]1CCN(CC3CCOCC3)C1)cn2-c1ccc(F)cc1C(=O)N(C[C@@H](C)O)C(C)C (single isomer, unassigned) [Compound 365a]
IC50 (MEIS1 mRNA expression; Homo sapiens, MOLM-14, 48 h): 35 nM
IC50 [1]: 0.102 nM

Cc1cncc2c1c(CC1CCN(C(CCC3OCCO3)C(C)C)C1)cn2-c1ccc(F)cc1C(=O)N(C)C(C)C (single isomer, unassigned) [Compound 366]
IC50 (MEIS1 mRNA expression; Homo sapiens, MOLM-14, 48 h): ~319 nM
IC50 [1]: 0.067 nM

Cc1cncc2c1c(C[C@@H]1CCN([C@H](CCC3OCCO3)C(C)C)C1)cn2-c1ccc(F)cc1C(=O)N(C)C(C)C (single isomer, unassigned) [Compound 367]
IC50 (MEIS1 mRNA expression; Homo sapiens, MOLM-14, 48 h): > 1000 nM
IC50 [1]: 0.201 nM

Cc1cncc2c1c(C=C1CCN(CC3CCOCC3)C1)cn2-c1ccc(F)cc1C(=O)N(C)C(C)C (single isomer, unassigned) [Compound 523a]
IC50 (MEIS1 mRNA expression): > 1000 nM
IC50 [1]: 0.376 nM

Cc1cncc2c1c(C=C1CCN(CC3CCOCC3)C1)cn2-c1ccc(F)cc1C(=O)N(C)C(C)C (single isomer, unassigned) [Compound 523b]
IC50 (MEIS1 mRNA expression): 62 nM
IC50 [1]: 0.124 nM

Cc1cncc2c1c(C=C1CCN(C)C1)cn2-c1ccc(F)cc1C(=O)N(C)C(C)C (single isomer, unassigned) [Compound 524a]
IC50 (MEIS1 mRNA expression): 2560 nM
IC50 [1]: 19 nM

Cc1cncc2c1c(C=C1CCN(C)C1)cn2-c1ccc(F)cc1C(=O)N(C)C(C)C (single isomer, unassigned) [Compound 524b]
IC50 (MEIS1 mRNA expression; Homo sapiens, MOLM-14, 48 h): 2120 nM
IC50 [1]: 8.62 nM

Cc1cncc2c1c(C[C@@H]1CCN(CC3CCOCC3)C1)cn2-c1ccc(F)cc1C(=O)N1CCC(O)C1C (stereo in doubt) [Compound 358]
IC50 (MEIS1 mRNA expression; Homo sapiens, MOLM-14, 48 h): 386 nM
IC50 [1]: 0.223 nM

COCCN(C)CCCC(C(C)C)N1CCC(Cc2cn(-c3ccc(F)cc3C(=O)N(C)C(C)C)c3cncc(C(F)(F)F)c23)C1 (centres unmarked) [Compound 7]
IC50 (MEIS1 mRNA expression; Homo sapiens, MOLM-14, 48 h): 158 nM
IC50 [1]: 0.305 nM

CCC([C@H]1C[C@@H](N2C[C@H]3CN(C(C)=O)C[C@@H]3C2)C1)N1CC[C@@H](Cc2cn(-c3ccc(F)cc3C(=O)N(C)C(C)C)c3cncc(Cl)c23)C1 (some centres unmarked) [Compound 26a]
IC50 (MEIS1 mRNA expression; Homo sapiens, MOLM-14, 48 h): 7 nM
IC50 [1]: 0.036 nM
